Key:
[1] = tested on: mycotoxicosis due to DON ingestion; parameters: Stomach ulcer: key to the marks not given beside the values; conditions: pig, in vivo
[2] = pig, in vivo, 0.05 mg/kg

**Q.** With `CC1=C[C@H]2O[C@@H]3[C@H](O)C[C@](C)([C@@]2(CO)[C@H](O)C1=O)[C@]31CO1` [DON, deoxynivalenol] as the compound, how does the “ADG1 average daily weight gain over the first 15 days of the challenge” value [1] read?
**A.** 0.54

**Q.** And the “ADG average daily weight gain over the last 13 days of the challenge” value [1]?
**A.** 0.81

**Q.** What about the Kidneys [1] of the same compound?
**A.** Pail

**Q.** And the Liver colour [1]?
**A.** Pail

**Q.** What about the Stomach inflammation [1] of the same compound?
**A.** ++/−

**Q.** What about the Stomach ulcer [1] of the same compound?
**A.** ++

**Q.** And the “villus/crypt ratio, average” value [1]?
**A.** 1.09

**Q.** What about the weight begin ([1]; po, 5.4 mg/kg) of the same compound?
**A.** 12.69

**Q.** And the weight end ([1]; po, 5.4 mg/kg)?
**A.** 31.75

**Q.** What about the “AUC0→∞ of unbound DON” value [2] of the same compound?
**A.** 187 ± 33

**Q.** What about the “Cmax of unbound DON” value [2] of the same compound?
**A.** 30.8 ± 2.5
